Measurements reported in article PMC11229374, “Unlocking the potential of protein-derived peptides to target G-quadruplex DNA: from recognition to anticancer activity” (Nucleic Acids Research, 2024).

Tests used:
U2OS cells = assay: Viability assay (crystal violet), U2OS; format: cell-based; details: 72 h treatment, unconjugated peptides
Procedure: U2OS, HCT116 and MDA-MB-231 cells were purchased from the ATCC and grown in Dulbecco modified Eagle's medium (DMEM; EuroClone, Milan, Italy; ECM0728L) supplemented with 10% Fetal Bovine Serum (FBS, ThermoFisher Scientific/Gibco, Waltham, MA, USA; 10270-106), 2 mM L-glutamine and antibiotics in a humidified incubator at 37°C with 5% CO2 and atmospheric O2 concentration. Cell lines were authenticated and tested to be mycoplasma-free.
U2OS, HCT116, and MDA-MB-231 cells were seeded in 24-well plates at a density of 1 × 10^4, 20 × 10^3 and 12 × 10^3 for each well, respectively. After 24 h, cells were treated with the indicated peptides and incubated at 37°C for additional 72 h. Upon treatment completion, cell medium was removed, the wells were washed twice in phosphate-buffered saline (PBS) and fixed with 4% formaldehyde for 15 min at room temperature (RT). After washing, 500 μl of crystal violet staining solution (Sigma-Aldrich, St. Louis, MO, USA) was added to each well and incubated for 30 min at RT. Finally, the plates were rinsed twice with water, air-dried and cell pellets were dissolved in 400 μl of a 10% aqueous solution of acetic acid. In total, 200 μl of each sample was transferred to a 96-well plate, and the optical density was measured at 570 nm (OD570) with an ELISA reader (Thermo Scientific, Waltham, MA, USA). The average absorbance in each condition was used to calculate the viability expressed as a percentage of treated vs untreated conditions (CTR).

VEGFR-17T G4 = assay: Microscale thermophoresis (MST) binding to VEGFR-17T G4; design: species or system human; details: 25°C, 20 nM FITC-labelled peptide, same buffer, n.d. = not determined due to undetectable binding
Procedure: (§1) MST experiments were conducted using a Monolith NT.115 instrument (NanoTemper Technologies, Munich, Germany) at 25°C with medium MST power settings. […] DNA samples were also diluted using the same buffer supplemented with 0.1% Tween. During MST experiments, the concentration of the labelled peptide was kept constant at 20 nM, while a serial dilution of the investigated DNA molecules (ranging from 10 or 20 μM) was prepared and mixed with the peptide solution in a 1:1 volume ratio. All the samples, with a final concentration of 5% DMSO, were loaded into standard capillaries (NanoTemper Technologies) for MST measurements. Data analysis was carried out using the MO.Affinity Analysis (v2.3) software provided with the instrument.

HT2 G4 = assay: Microscale thermophoresis (MST) binding to HT2 G4; design: species or system human; details: 25°C, 20 nM FITC-labelled peptide, DNA serial dilution, 5 mM KH2PO4/K2HPO4 pH 7.0, 20 mM KCl, 0.1% Tween, 5% DMSO
Procedure: as §1

ds12 duplex = assay: Microscale thermophoresis (MST) binding to ds12 duplex; details: 25°C, 20 nM FITC-labelled peptide, same buffer, n.d. = not determined due to undetectable binding
Procedure: as §1

c-KIT2 G4 = assay: Microscale thermophoresis (MST) binding to c-KIT2 G4; design: species or system human; details: 25°C, 20 nM FITC-labelled peptide, DNA serial dilution, 5 mM KH2PO4/K2HPO4 pH 7.0, 20 mM KCl, 0.1% Tween, 5% DMSO
Procedure: as §1

c-MYC G4 = assay: Microscale thermophoresis (MST) binding to c-MYC G4; design: species or system human; details: 25°C, 20 nM FITC-labelled peptide, DNA serial dilution, 5 mM KH2PO4/K2HPO4 pH 7.0, 20 mM KCl, 0.1% Tween, 5% DMSO
Procedure: as §1

LWDLN1 G4 = assay: Microscale thermophoresis (MST) binding to LWDLN1 G4; details: 25°C, 20 nM FITC-labelled peptide, same buffer, n.d. = not determined due to undetectable binding
Procedure: as §1

Ac-NHTGNSIRHRFRVYLSKRL-NH2 [Myb^397–415]
Impact on cancer cell viability, peptides in native form (U2OS cells): unable to significantly impact cancer cells viability
Kd for binding to VEGFR-17T G4 (VEGFR-17T G4): negligible binding
Kd (HT2 G4): 1180 nM
Kd for binding to ds12 duplex (ds12 duplex): negligible
Kd (c-KIT2 G4): 130 nM
Kd (c-MYC G4): 430 nM
Kd for binding to LWDLN1 G4 (LWDLN1 G4): negligible binding
